Like-named read-outs stand apart in the source and are kept apart here.
Experiments:
[1] = cited from earlier work; for Approx. Natriuretic Activity: comparison with chlorothiazide having a value of 1; for Potency as diuretic and natriuretic agent relative to chlorothiazide: chlorothiazide being one
[2] = cited from earlier work; for Range diuretic dose: Example 1 table
plasma proteins = conditions: cited from earlier work
[3] = in vivo; cited from earlier work
carbonic anhydrase = conditions: cited from earlier work
[4] = Clinical antihypertensive action dissociated from diuresis; type: in vivo, humans
Experimental: Such dosage was preferably administered at hourly intervals over a period of from 4 to 8 hours to hypertensive patients.

Compound | Approx. Natriuretic Activity [1] | Range diuretic dose [2] [mg] | Daily Diuretic Dose (average minimum diuretic dose) [2] [mg] | Binding to plasma proteins (plasma proteins) | further results
NS(=O)(=O)c1cc2c(cc1C(F)(F)F)NC(Cc1ccccc1)NS2(=O)=O (centres unmarked) [Bendroflumethiazide] | 100 | 2 to 5 | 20 | proportionately high binding to plasma proteins | 
NS(=O)(=O)c1cc2c(cc1Cl)N=C(CSCc1ccccc1)NS2(=O)=O [Benzthiazide] | 10 | 25 to 50 | 200 |  | Clinical alkalinization of urine [3]: does not cause an appreciable clinical alkalinization of urine; Carbonic anhydrase inhibition, in words (carbonic anhydrase): relatively potent carbonic anhydrase inhibitor
NS(=O)(=O)c1cc2c(cc1Cl)NC(CC1CCCC1)NS2(=O)=O (centres unmarked) [Cyclopenthiazide] | 1000 | 1 to 6 | 2 | proportionately high binding to plasma proteins | Potency as diuretic and natriuretic agent relative to chlorothiazide [1]: thousand times more potent; Potency as diuretic and natriuretic agent relative to chlorothiazide ([1]; listed as cyclopenthiazide): a thousand; Daily Diuretic Dose (average minimum diuretic dose) ([2]; listed as cyclopenthiazide): about 2 mg
NS(=O)(=O)c1cc2c(cc1Cl)NC(C1CC3C=CC1C3)NS2(=O)=O (centres unmarked) [Cyclothiazide] | 500 | 1 to 6 | 2 | proportionately high binding to plasma proteins | Daily Diuretic Dose (average minimum diuretic dose) ([2]; listed as cyclothiazide): about 2 mg
NS(=O)(=O)c1cc2c(cc1C(F)(F)F)N=CNS2(=O)=O [Flumethiazide] | 1 | 50 to 1000 | 200 |  | 
NS(=O)(=O)c1cc2c(cc1Cl)NCNS2(=O)=O [Hydrochlorothiazide] | 10 | 25 to 100 | 200 |  | 
CN1C(CCl)Nc2cc(Cl)c(S(N)(=O)=O)cc2S1(=O)=O (centres unmarked) [Methyclothiazide] | 100 | 5 to 10 | 10 | proportionately high binding to plasma proteins | 
CN1C(CSCC(F)(F)F)Nc2cc(Cl)c(S(N)(=O)=O)cc2S1(=O)=O (centres unmarked) [Polythiazide] |  |  |  | proportionately high binding to plasma proteins | 
NS(=O)(=O)c1cc2c(cc1Cl)NC(C(Cl)Cl)NS2(=O)=O (centres unmarked) [Trichlormethiazide] | 200 | 4 to 8 | 8 | proportionately high binding to plasma proteins | 
amiloride-hydrochlorothiazide salt |  |  |  |  | Diuretic response at the antihypertensive daily dose ([4]; at the daily dose of b165): without diuresis; Daily dose to achieve an antihypertensive effect ([4]; dose of active ingredients per day): about 50 mg

Reference: patent publication US4898729A, “Treatment of hypertension, compounds and compositions for antihypertension and diuresis” (priority 1983, dated 1990)
